Source: the NIST ThermoML archive (doi:10.1016/j.fluid.2007.09.023)

Assay: molar heat capacity at constant volume
Conditions: Vacuum adiabatic calorimetry

Cc1ccccc1 [toluene]
Fluid (supercritical or subcritical phases)
Conditions | molar heat capacity at constant volume [J/K/mol]
386.9 K, Mass density=777.8 kg/m3 | 147.79
387.48 K, Mass density=777.8 kg/m3 | 147.7
387.84 K, Mass density=777.8 kg/m3 | 146.41
388.65 K, Mass density=777.8 kg/m3 | 146.96
392.83 K, Mass density=777.8 kg/m3 | 145.67
393.6 K, Mass density=777.8 kg/m3 | 144.01
399.34 K, Mass density=777.8 kg/m3 | 146.68
411.33 K, Mass density=777.8 kg/m3 | 148.9
413.55 K, Mass density=777.8 kg/m3 | 149.08
545.3 K, Mass density=555.25 kg/m3 | 189.99
545.51 K, Mass density=555.25 kg/m3 | 189.07
545.84 K, Mass density=555.25 kg/m3 | 188.79
545.93 K, Mass density=555.25 kg/m3 | 189.44
548.72 K, Mass density=555.25 kg/m3 | 187.41
549.32 K, Mass density=555.25 kg/m3 | 189.25
550.41 K, Mass density=555.25 kg/m3 | 188.52
589.54 K, Mass density=214.64 kg/m3 | 349.57
589.66 K, Mass density=214.64 kg/m3 | 307.47
589.72 K, Mass density=214.64 kg/m3 | 299.45
589.84 K, Mass density=214.64 kg/m3 | 280.47
590.03 K, Mass density=214.64 kg/m3 | 271.9
590.09 K, Mass density=214.64 kg/m3 | 264.9
590.51 K, Mass density=214.64 kg/m3 | 250.8
590.58 K, Mass density=214.64 kg/m3 | 252.92

molar heat capacity at constant volume [J/K/mol]
Conditions | 386.9 K | 545.3 K | 589.54 K | 591.72 K | 591.84 K | 591.85 K | 591.87 K | 591.88 K
Gas | – | – | 349.57 | 385.6 | 425.4 | – | – | –
Liquid | 147.79 | 189.99 | – | – | – | 331.51 | 422.18 | 442.26
